In brackets after ≈: the same amount, converted by molar mass.
Columns and labels:
Candida albicans [1] = assay: Antifungal activity against wild type Candida albicans; assay type: functional
Plasmodium falciparum [2] = assay: Antimalarial activity against Plasmodium falciparum; assay type: functional, organism-based
Leishmania donovani [3] = assay: Antileishmanial activity against axenic amastigote form of Leishmania donovani LV9 assessed as reduction in parasite growth; assay type: functional, organism-based
[4] = Cytotoxicity against HUVEC cells assessed as reduction in cell viability; assay type: cell-based; conditions: human
[5] = Selectivity index, ratio of CC50 for cytotoxicity against HUVEC cells to IC50 for antileishmanial activity against axenic amastigote form of Leishmania donovani LV9; assay type: toxicity, cell-based; conditions: human, read-out: Ratio CC50/IC50
Candida albicans [6] = assay: Antifungal activity against Candida albicans CAAL93 assessed as reduction in fungal growth; assay type: functional, organism-based
Aspergillus fumigatus = assay: Antifungal activity against Aspergillus fumigatus ASFU76 assessed as reduction in fungal growth after; assay type: functional, organism-based
[7] = Selectivity index, ratio of CC50 for cytotoxicity against HUVEC cells to IC50 for antiplasmodial activity against Plasmodium falciparum 3D7; assay type: toxicity, cell-based; conditions: human, read-out: Ratio CC50/IC50
Plasmodium falciparum [8] = assay: Antimalarial activity against Plasmodium falciparum 3D7 assessed as inhibition of parasite growth; assay type: functional, organism-based
Leishmania donovani [9] = assay: Antileishmanial activity against intramacrophage form of Leishmania donovani LV9 assessed as reduction in parasite growth; assay type: functional, organism-based

Row | Structure (SMILES) | MIC (Candida albicans [1]) | EC50 (Plasmodium falciparum [2]) | IC50 (Leishmania donovani [3]) | CC50 [4] | selectivity ratio [5] | IC50 (Candida albicans [6]) | IC50 (Aspergillus fumigatus) | selectivity ratio [7] | IC50 (Plasmodium falciparum [8]) | IC50 (Leishmania donovani [9])
1 | C=C/C=C/C=C\C=C\C=C\C=C/C=C\C[C@H]1C[C@@H](CC(=O)O)OO1 | 0.61 µM (≈ 0.2 µg/mL) | 0.052 µM |  |  |  |  |  |  |  | 
2 | CCCCCCC1CCOO1 (configuration not stated) |  |  | 49.8 µM | 10.6 µM | 0.2 | > 100 µM | > 100 µM | < 10.6 | > 1 µM | 
3 | CCCCCCCCCCCCCCC[C@H]1C[C@@H](CC(=O)O)OO1 |  |  | 6.16 µM |  |  | > 100 µM | > 100 µM |  | > 1 µM | 
4 | CC(=O)OC1CC(CCO[Si](c2ccccc2)(c2ccccc2)C(C)(C)C)OO1 (mixture of isomers) |  |  | > 100 µM |  |  | > 100 µM | > 100 µM |  | > 1 µM | 
5 | C=CCC1CC(CCCCCC)OO1 (mixture of isomers) |  |  | > 100 µM | 0.7 µM | < 0.01 | 25.2 µM | > 100 µM | 7 | 0.1 µM | 
6 | CCCCCCCCCCCCCCC[C@H]1C[C@@H](CCO)OO1 (mixture of isomers) |  |  | 5.57 µM |  |  | > 100 µM | > 100 µM |  | > 1 µM | 
7 | CCCCCCC1CC(OC(C)=O)OO1 (mixture of isomers) |  |  | 70.7 µM | 57.8 µM | 0.82 | > 100 µM | > 100 µM | < 57 | > 1 µM | > 100 µM
8 | CCCCCCC1CC(C/C=C\Cl)OO1 (mixture of isomers) |  |  | 1.5 µM | 6.13 µM | 4.09 | 33.4 µM | > 100 µM | 40 | 0.15 µM | 28.4 µM
9 | CCCCCCC1CC(O)OO1 (mixture of isomers) |  |  | > 100 µM | 71.7 µM | < 0.72 | > 100 µM | > 100 µM | < 71 | > 1 µM | > 100 µM
10 | C=C(C)CC1CC(CCCCCC)OO1 (mixture of isomers) |  |  | 6.82 µM | 11.7 µM | 1.71 | 35.7 µM | 35.7 µM | 68 | 0.17 µM | > 100 µM
11 | CC(=O)OC1CC(C2CCCCC2)OO1 (mixture of isomers) |  |  | 56.6 µM |  |  | > 100 µM | > 100 µM |  | > 1 µM | 
12 | CC(C)C1CC(O)OO1 (mixture of isomers) |  |  | > 100 µM | 28.2 µM | < 0.28 | > 100 µM | > 100 µM | 234 | 0.12 µM | > 100 µM
13 | CCCCCCC1CC(C/C=C\Br)OO1 (mixture of isomers) |  |  | 1.55 µM | 2.29 µM | 1.48 | > 100 µM | > 100 µM | < 2 | > 1 µM | 33.6 µM
14 | CCCCCCC1CC(C#N)OO1 (mixture of isomers) |  |  | 42.9 µM | 10.9 µM | 0.26 | > 100 µM | > 100 µM | < 10 | > 1 µM | > 100 µM
15 | CC(C)(C)C1CC(O)OO1 (mixture of isomers) |  |  | > 100 µM | 12.2 µM | < 0.12 | > 100 µM | > 100 µM | 35 | 0.34 µM | > 100 µM
16 | CCCCCCC1CC(CC(=O)SCC)OO1 (mixture of isomers) |  |  | 1.88 µM | 1.89 µM | 1.01 | > 100 µM | > 100 µM | 7 | 0.25 µM | 38.9 µM
17 | C=CCC1CC(CCO[Si](c2ccccc2)(c2ccccc2)C(C)(C)C)OO1 (mixture of isomers) |  |  | > 100 µM |  |  | > 100 µM | > 100 µM |  | > 1 µM | 
18 | CC(=O)OC1CC(C(C)(C)C)OO1 (mixture of isomers) |  |  | > 100 µM | 12.6 µM | < 0.13 | > 100 µM | > 100 µM | 628 | 0.02 µM | 44.3 µM
19 | CCCCCCC1CC(CC(=O)c2ccccc2)OO1 (mixture of isomers) |  |  | > 100 µM | 9.02 µM | < 0.09 | > 100 µM | > 100 µM | 24 | 0.37 µM | 
20 | CCCCCCC1CC(CC(=O)Sc2ccccc2)OO1 (mixture of isomers) |  |  | 2.2 µM | 1.82 µM | 0.83 | > 100 µM | > 100 µM | < 1.8 | > 1 µM | > 100 µM
21 | CC(=O)OC1CC(C(C)C)OO1 (mixture of isomers) |  |  | > 100 µM | 59.3 µM | < 0.59 | > 100 µM | > 100 µM |  | 0.1 µM | 32.9 µM
22 | C=CCC1CC(C2CCCCC2)OO1 (mixture of isomers) |  |  | 6.78 µM |  |  | > 100 µM | > 100 µM |  | > 1 µM | 
23 | CCCCCCC1CC(CC(=O)C(C)(C)C)OO1 (mixture of isomers) |  |  | 4.42 µM | 6.09 µM | 1.38 | > 100 µM | > 100 µM | < 6 | > 1 µM | > 100 µM
24 | C[C@@H]1[C@H](O)[C@@H](C)/C=C/C=C/C=C/C=C/C=C/C=C/C=C/[C@H](O[C@@H]2O[C@H](C)[C@@H](O)[C@H](N)[C@@H]2O)C[C@@H]2O[C@](O)(C[C@@H](O)C[C@@H](O)[C@H](O)CC[C@@H](O)C[C@@H](O)CC(=O)O[C@H]1C)C[C@H](O)[C@H]2C(=O)O [AMPHOTERICIN B] |  |  |  |  |  |  | 0.33 µM |  |  | 
25 | CCN(CC)CCCC(C)Nc1ccnc2cc(Cl)ccc12 (configuration not stated) [CHLOROQUINE] |  |  |  | 31.5 µM |  |  |  |  |  | 
26 | OC(Cn1cncn1)(Cn1cncn1)c1ccc(F)cc1F [FLUCONAZOLE] |  |  |  |  |  | 0.3 µM |  |  |  | 
27 | CCCCCCCCCCCCCCCCOP(=O)([O-])OCC[N+](C)(C)C [MILTEFOSINE] |  |  | 1.7 µM | 54.3 µM | 32 |  |  |  |  | 0.61 µM

Reference: ChEMBL document CHEMBL4819148, “Anti-protozoal and anti-fungal evaluation of 3,5-disubstituted 1,2-dioxolanes” (Bioorg Med Chem Lett, 2021)
